Measurements published in US5877185A, “Synergistic compositions useful as anti-tumor agents” (priority 1995, dated 1999).

What was measured:
L 1210 = assay: cytotoxicity of INO2 BA with and without BSO, L 1210; format: cell-based, murine; settings: Mus musculus, L1210, INO2 BA alone, 48 hours
Method: (§1) The concentration of BSO was 1 mM for all cell lines except HT 144, where the concentration was 0.25 mM. Cells were seeded in the recommended growth medium at a density of 1.5×10^4 cell/cm^2 into 2 cm^2 wells. Drugs were added simultaneously 4 hours after seeding, and incubation was continued for 48 hours at 37° C. in a 5% CO2 atmosphere. For assessment of drug effects cells were detached by trypsinization and counted in a hemacytometer.
(§2) Cell lines Nos. 1-4 were obtained from Dr. C. Benz, University of California, San Francisco. MDA 468 and MCF-7 human mammary cancer lines, MCF-7-B-ADR drug-resistant mammary cancer line, Du 145 drug-resistant human prostate cancer line, HT 144 human melanoma cell line, Hep-G2 human hepatocellular carcinoma line, and PC-12 rat pheochromocytoma line were obtained from the University of California Cell Culture Facility.

[1] = system: SIVmac239 or virus isolates in CEM ×174 cells; assay: SIV replication in CEM ×174 cells, SIV p27 core antigen assay; format: cell-based
Excerpt: Infected cell cultures described in FIG. 4 were used for determination of supernatant virus titers by SIV p27 core antigen assay as described in Example XIV. The ordinate represents p27 ELISA performed on day 10 of the assay and the abscissa represents the concentration of INO2 BA alone (rear rows in panels A, B and C) and in combination with BSO (front rows in panels A, B and C).
CEM ×174 cells (3×10^5 /ml) were infected with 3.75 TCID50 /ml (50% tissue culture infectious dosage per ml of cell suspension) stock solution of SIVmac239 or virus isolates from SIVmac239-infected rhesus macaques on day 0. Uniform infection of cells was ensured by the infection of one cell population only per virus preparation. Three days post-infection, the cells were distributed (500 μl/well) into individual wells of a 24-well plate. Fresh medium containing INO2 BA concentrations ranging from 0 to 300 μM and/or BSO concentrations ranging from 0 to 0.25 mM were added to establish final 1-ml reaction volumes, and the cultures were further incubated for 4 days. The wells were then replenished with fresh CEM ×174 cells (3×10^5 /ml), INO2 BA and/or BSO were re-added at the same concentrations as in the original incubates, and incubation was continued for an additional 3 days. This procedure intends to mimic conditions of in vivo chemotherapy. Cell viability and virus titers in the supernatant were determined on day 10 (3 days after the addition of new cells) by the tetrazolium (MTT) method of Hansen et al., J. Immunol. Methods 119:208-210 (1982) and by the SIV p27 and reverse transcriptase (RT) assays described by Chuang et al., FEBS Lett. 326:140-144 (1993), respectively.
SIVmac p27 core antigen levels were determined by an enzyme immunoassay provided by Coulter Corp. (Hialeah, Fla.). The assay was performed according to the manufacturer's specifications.

PC-12 = assay: cytotoxicity of INO2 BA with and without BSO, PC-12; format: cell-based; settings: Rattus norvegicus, INO2 BA alone, 48 hours
Method: as §1, §2

MDA-468 = assay: cytotoxicity of INO2 BA with and without BSO, MDA-468; format: cell-based; settings: Homo sapiens
Method: as §1, §2

CEM-4 = assay: cytotoxicity of INO2 BA with and without BSO, CEM-4; format: cell-based; settings: Homo sapiens
Method: as §1, §2

pADPRT = pADPRT zinc content / zinc ejection; format: biochemical; settings: 25° C.
Method: FIG. 2A is a graph comparing the effects of NOBA and INOBA on the enzyme activity and zinc content of pADPRT. Inactivation was performed as described in Example III. In these experiments ^65 Zn^2+ -labeled pADPRT was used. The Zn^2+ content of pADPRT (upper panel) was determined as follows: two parallels of aliquots (4 μl) were pipetted into 500 μl of ice-cold washing solution (50 mM Tris, pH 7.7, 10 mM 2-mercaptoethanol and 0.5 mM EDTA) then filtered onto GF/C disks presoaked in washing solution (cold), quickly washed 4 times with 1 ml of ice-cold washing solution, dried, and the radioactivity determined. The protein-bound ^65 Zn^2+ is shown as percent of the untreated sample. Enzyme assays (lower panel) were performed as in FIG. 1.
For the release of Zn^2+ from transblotted pADPRT, the enzyme (3 μg per lane) was separated on SDS-PAGE, transblotted onto a nitrocellulose membrane, and renatured in the presence of ^65 ZnCl2. […] After incubation, 1 ml of the supernatant was counted for radioactivity, and the strips were washed 3 times with 2 ml of 50 mM Tris-HCl pH 7.4), 0.5 mM EDTA and 10 Mm 2-mercaptoethanol, and then dried and exposed to X-ray film. The intensity of the autoradiographic spots was quantitated by a scanner. […]

HIV-1 NC zinc fingers = settings: isolated HIV-1 NC zinc fingers and intact HIV-1 virions; cited from earlier work

SMILES | IC50 (L 1210; read-out: I50) [µM] | IC100 (L 1210; read-out: LD100) [µM] | SIV p27 formation ([1]; INO2 BA alone, FIG. 5A-C) | effect of GSH depletion by BSO on inhibitory effect on SIV replication ([1]; with BSO, CEM ×174 cells) | IC50 (PC-12; read-out: I50) [µM] | IC100 (PC-12; read-out: LD100) [µM] | IC100 (MDA-468; 48 h, read-out: LD100) [µM] | IC50 (MDA-468; INO2 BA alone, 48 hours, read-out: I50) [µM] | IC100 (CEM-4; CEM-4, 48 h, read-out: LD100) [µM] | IC50 (CEM-4; CEM-4, INO2 BA alone, 48 hours, read-out: I50) [µM] | time in which zinc ejection was complete (pADPRT) [h] | zinc ejection (HIV-1 NC zinc fingers)
NC(=O)c1ccc(I)c([N+](=O)[O-])c1 [INO2 BA, 4-iodo-3-nitrobenzamide] | 128 | 256 | almost complete inhibition | synergistically enhances | 60 | 120 | 180 | 80 | 196 | 80 | – | –
NC(=O)c1cccc(N=O)c1 [NOBA, 3-nitrosobenzamide] | – | – | – | – | – | – | – | – | – | – | ≤ 2 | eject zinc
